# Results: paper PMC9933440 (Crystal Growth & Design, 2022)
# Several values for one entry are separate records, joined by “and”; a condition that tells them apart may be missing. Equal values may be shown once. Read-outs that look alike come from different tables or passages of the source.
# Tests used:
# [1] = cited from earlier work
# [2] = cited from earlier work; remark: listed apart in the source
# [3] = cited from earlier work; remark: listed apart in the source
# [4] = Solubility experiments in sodium phosphate buffer pH 6.5, 37 °C (HPLC); conditions: for dissolved MEL / dissolved PRM: highest dissolved concentration, sodium phosphate buffer pH 6.5, 37 °C
# Experimental: Solubility experiments were conducted in sodium phosphate buffer solutions at pH 6.5 and 37 °C to simulate intestinal physiological conditions. For each experiment, an excess crystalline solid was sieved through a 300 μm sieve and introduced into a flask with a screw top containing 100 mL of the medium. The solution was stirred at 200 rpm using a magnetic stir bar for 48 h to reach the equilibrium state. […] After each sampling, the volume of the liquid removed from the suspension was not compensated. The withdrawn suspension was filtered through 0.2 μm nylon filters and diluted prior to high-performance liquid chromatography (HPLC) analysis. The solubility experiment for each crystal form was repeated in triplicate. After the last sample collection, the remaining solid material in the suspension was filtered, dried, and characterized by IR and PXRD.
# A C18 HPLC column (YMC-Pack ODS-A column, 4.6 mm × 250 mm, 5 μm) with a flow rate of 1 mL min^–1 was employed, and the column temperature was set at 25 °C. The binary mobile phase consisted of acetonitrile and sodium phosphate buffer (pH 6.5) in a volume ratio of 25:75. The samples were diluted appropriately with the mobile phase, and the absorbance was measured at 347 nm.
smiles,measurement,setting,value
"CN1C(C(=O)Nc2ccccn2)=C(O)c2sc(Cl)cc2S1(=O)=O.CNC(=O)NC [LRM 1,3-dimethyl urea]",bioavailability vs parent API (fold),[1],2.5 x
same,IDR vs parent API (fold),[2]; pH 1.2,28 x
same,IDR vs parent API (fold),[2]; pH 7.4,19 x
CN1C(C(=O)Nc2ccccn2)=C(O)c2sc(Cl)cc2S1(=O)=O.O=C(O)c1ccc(O)cc1 [LRM 4-hydroxy benzoic acid],solubility vs parent API (fold),[3]; in H2O,improved solubility in H2O (x 1.6–6.9)
CN1C(C(=O)Nc2ccccn2)=C(O)c2sc(Cl)cc2S1(=O)=O.Cl [LRM HCl],dissolution vs parent API (fold),[2]; pH 7,improved dissolution at pH 7 (x 1.3–1.6)
CN1C(C(=O)Nc2ccccn2)=C(O)c2sc(Cl)cc2S1(=O)=O.N [LRM NH3],dissolution vs parent API (fold),[2]; pH 7,improved dissolution at pH 7 (x 1.3–1.6)
CN1C(C(=O)Nc2ccccn2)=C(O)c2sc(Cl)cc2S1(=O)=O.O=C(O)c1ccccc1 [LRM benzoic acid],solubility vs parent API,[3]; in H2O,no solubility advantage in H2O
CN1C(C(=O)Nc2ccccn2)=C(O)c2sc(Cl)cc2S1(=O)=O.O=C(O)CCCC(=O)O [LRM glutaric acid],solubility vs parent API,[3]; in H2O,no solubility advantage in H2O
CN1C(C(=O)Nc2ccccn2)=C(O)c2sc(Cl)cc2S1(=O)=O.CS(=O)(=O)O [LRM methanesulfonic acid],dissolution vs parent API (fold),[2]; pH 7,improved dissolution at pH 7 (x 1.3–1.6)
CN1C(C(=O)Nc2ccccn2)=C(O)c2sc(Cl)cc2S1(=O)=O.O=C(O)c1ccccc1O [LRM salicylic acid],solubility vs parent API,[3]; in H2O,no solubility advantage in H2O
Cc1cnc(NC(=O)C2=C(O)c3ccccc3S(=O)(=O)N2C)s1.O=C(O)c1ccc(O)cc1 [MEL 4-hydroxybenzoic acid],bioavailability vs parent API (fold),[1],1.1–1.6 x
same,solubility vs parent API,[3]; pH 6.5,higher solubility
Cc1cnc(NC(=O)C2=C([O-])c3ccccc3S(=O)(=O)N2C)s1.O.[K+] [MEL KOH H2O],bioavailability vs parent API,[1]; in vivo,no bioavailability advantage
same,dissolution behavior vs parent API,[2]; pH 5.6,improved dissolution behavior
Cc1cnc(NC(=O)C2=C(O)c3ccccc3S(=O)(=O)N2C)s1.N=C(N)NCCCC(N)C(=O)O [MEL arginine],dissolution behavior vs parent API,[2]; pH 7.5,improved dissolution behavior
Cc1cnc(NC(=O)C2=C(O)c3ccccc3S(=O)(=O)N2C)s1.NC(CS)C(=O)O [MEL cysteine],dissolution behavior vs parent API,[2]; pH 7.5,improved dissolution behavior at pH 7.5
Cc1cnc(NC(=O)C2=C(O)c3ccccc3S(=O)(=O)N2C)s1.O=C(O)/C=C/C(=O)O [MEL fumaric acid],bioavailability vs parent API,[1],no bioavailability advantage
Cc1cnc(NC(=O)C2=C(O)c3ccccc3S(=O)(=O)N2C)s1.NCC(=O)O [MEL glycine],dissolution behavior vs parent API,[2]; pH 7.5,improved dissolution behavior at pH 7.5
Cc1cnc(NC(=O)C2=C(O)c3ccccc3S(=O)(=O)N2C)s1.O=C(O)CO [MEL glycolic acid],bioavailability vs parent API,[1],no bioavailability advantage
Cc1cnc(NC(=O)C2=C(O)c3ccccc3S(=O)(=O)N2C)s1.O=C(O)CCc1ccccc1 [MEL hydrocinnamic acid],bioavailability vs parent API,[1],no bioavailability advantage
Cc1cnc(NC(=O)C2=C(O)c3ccccc3S(=O)(=O)N2C)s1.Nc1ccncc1 [MEL-4AP],dissolved MEL,[4],0.68 ± 0.05 mg mL^–1
same,"dissolved MEL, times higher than that of the pure MEL","[4]; pH 6.5, 37 °C",8.1 times
same,time for which the supersaturation state is maintained,"[4]; pH 6.5, 37 °C",> 300 min
same,apparent solubility compared with the pure API,"[4]; pH 6.5, this work",higher solubility at pH 6.5
CN(C)c1ccncc1.Cc1cnc(NC(=O)C2=C(O)c3ccccc3S(=O)(=O)N2C)s1 [MEL-4DMP],dissolved MEL,[4],0.85 ± 0.02 mg mL^–1
same,time for which the supersaturation state is maintained,[4]; pH 6.5,more than 200 min
same,"dissolved MEL, times higher than that of the pure MEL","[4]; pH 6.5, 37 °C",10.2 times
CN1C(C(=O)Nc2ccccn2)=C(O)c2ccccc2S1(=O)=O.OCCNCCO [PRM diethanolamine],bioavailability vs parent API,[1],higher bioavailability
CN1C(C(=O)Nc2ccccn2)=C(O)c2ccccc2S1(=O)=O.NCCO [PRM ethanolamine],bioavailability vs parent API,[1],higher bioavailability
CN1C(C(=O)Nc2ccccn2)=C(O)c2ccccc2S1(=O)=O.Cc1nc(-c2ccc(OCC(C)C)c(C#N)c2)sc1C(=O)O [PRM febuxostat],dissolution vs parent API (fold),[2]; pH 6.8,2.8 x
CN1C(C(=O)Nc2ccccn2)=C(O)c2ccccc2S1(=O)=O.COc1cc(/C=C/C(=O)O)ccc1O [PRM ferulic acid],IDR vs parent API (fold),[2]; pH 2,1.7 x
CN1C(C(=O)Nc2ccccn2)=C(O)c2ccccc2S1(=O)=O.COC(=O)c1ccc(O)cc1 [PRM methylparaben],IDR vs parent API,[2]; pH 1.2,no solubility and IDR advantages
same,dissolution rates in the sink condition,[2]; pH 1.2,superior dissolution rates
CN1C(C(=O)Nc2ccccn2)=C(O)c2ccccc2S1(=O)=O.OCCN(CCO)CCO [PRM triethanolamine],bioavailability vs parent API,[1],higher bioavailability
CN1C(C(=O)Nc2ccccn2)=C(O)c2ccccc2S1(=O)=O.NC(N)=O [PRM urea],solubility vs parent API,[3],no solubility advantage
CN1C(C(=O)Nc2ccccn2)=C(O)c2ccccc2S1(=O)=O.COc1cc(C=O)ccc1O [PRM vanillin],IDR vs parent API,[2]; pH 1.2,no solubility and IDR advantages
same,dissolution rates in the sink condition,[2]; pH 1.2,superior dissolution rates
same,solubility vs parent API,[3]; pH 1.2,no solubility and IDR advantages
"CN1C(C(=O)Nc2ccccn2)=C(O)c2ccccc2S1(=O)=O [PRM, Piroxicam]",dissolved PRM,[4],0.39 mg mL^–1 and 0.39 ± 0.01 mg mL^–1
same,time to highest solubility / maximum dissolved concentration / equilibrium,[4]; pH 6.5,60 min
same,solubility thermodynamic at 48 h,"[4]; pH 6.5, aqueous buffer",140 µg/mL
CN1C(C(=O)Nc2ccccn2)=C(O)c2ccccc2S1(=O)=O.Nc1ccncc1 [PRM-4AP],dissolved PRM,[4],1.08 mg mL^–1 and 1.08 ± 0.02 mg mL^–1
same,"dissolved PRM, times higher than that of the anhydrous PRM","[4]; pH 6.5, 37 °C",2.8 times
same,apparent solubility compared with the pure API,"[4]; pH 6.5, this work",higher solubility
CN(C)c1ccncc1.CN1C(C(=O)Nc2ccccn2)=C(O)c2ccccc2S1(=O)=O [PRM-4DMP],dissolved PRM,[4],1.07 mg mL^–1 and 1.07 ± 0.01 mg mL^–1
same,apparent solubility compared with the pure API,[4]; pH 6.5,higher solubility
same,"dissolved PRM, times higher than that of the anhydrous PRM","[4]; pH 6.5, 37 °C",2.8 times
C1CNCCN1.CN1C(C(=O)Nc2ccccn2)=C(O)c2ccccc2S1(=O)=O.CN1C(C(=O)Nc2ccccn2)=C(O)c2ccccc2S1(=O)=O [PRM-PPZ],dissolved PRM,[4],0.43 mg mL^–1 and 0.43 ± 0.04 mg mL^–1
same,apparent solubility compared with the pure API,[4]; pH 6.5,higher solubility
same,"dissolved PRM, times higher than that of the anhydrous PRM","[4]; pH 6.5, 37 °C",1.1 times
CN1C(C(=O)Nc2ccccn2)=C(O)c2sccc2S1(=O)=O.Cl [TNM HCl],IDR vs parent API,[2]; pH 7,no solubility and IDR advantages at pH 7
same,solubility vs parent API,[3]; pH 7,no solubility and IDR advantages at pH 7
CN1C(C(=O)Nc2ccccn2)=C(O)c2sccc2S1(=O)=O.O=C(O)c1ccccc1 [TNM benzoic acid],IDR vs parent API (fold),[2]; pH 7,2 x
same,solubility vs parent API,[3]; pH 7,no solubility advantage
CN1C(C(=O)Nc2ccccn2)=C(O)c2sccc2S1(=O)=O.O=C(O)CO [TNM glycolic acid],IDR vs parent API,[2]; pH 4.5,no IDR advantage at pH 4.5 and 6.8
same,IDR vs parent API,[2]; pH 6.8,no IDR advantage at pH 4.5 and 6.8
CN1C(C(=O)Nc2ccccn2)=C(O)c2sccc2S1(=O)=O.CS(=O)(=O)O [TNM methanesulfonic acid],IDR vs parent API,[2]; pH 7,no solubility and IDR advantages at pH 7
same,solubility vs parent API,[3]; pH 7,no solubility and IDR advantages at pH 7
C1CNCCN1.CN1C(C(=O)Nc2ccccn2)=C(O)c2sccc2S1(=O)=O [TNM piperazine],IDR vs parent API (fold),[2]; pH 7,2.5 x
same,solubility vs parent API (fold),[3]; pH 7,5.5 x
CN1C(C(=O)Nc2ccccn2)=C(O)c2sccc2S1(=O)=O.Oc1cccc(O)c1O [TNM pyrogallol],IDR vs parent API (fold),[2]; pH 7,2.4–4.2 x
same,solubility vs parent API (fold),[3]; pH 7,5.8–10.1 x
CN1C(C(=O)Nc2ccccn2)=C(O)c2sccc2S1(=O)=O.O=C1NS(=O)(=O)c2ccccc21 [TNM saccharin],IDR vs parent API,[2]; pH 4.5,no IDR advantage at pH 4.5 and 6.8
same,IDR vs parent API,[2]; pH 6.8,no IDR advantage at pH 4.5 and 6.8
CN1C(C(=O)Nc2ccccn2)=C(O)c2sccc2S1(=O)=O.O=C(O)c1ccccc1O [TNM salicylic acid],IDR vs parent API,[2]; pH 4.5,no IDR advantage at pH 4.5 and 6.8
same,IDR vs parent API,[2]; pH 6.8,no IDR advantage at pH 4.5 and 6.8
same,IDR vs parent API,[2]; pH 7,no solubility and IDR advantages at pH 7
same,solubility vs parent API,[3]; pH 7,no solubility and IDR advantages at pH 7
CN1C(C(=O)Nc2ccccn2)=C(O)c2sccc2S1(=O)=O.O=C(O)CCC(=O)O [TNM succinic acid],IDR vs parent API,[2]; pH 4.5,no IDR advantage at pH 4.5 and 6.8
same,IDR vs parent API,[2]; pH 6.8,no IDR advantage at pH 4.5 and 6.8
